Data taken from PMC9407119, “Improving the Specific Activity and Thermostability of Psychrophilic Xylosidase AX543 by Comparative Mutagenesis” (Foods, 2022).

How the values were obtained:
Assay in all cases: pNP release at […] nm, Lineweaver-Burk
Details in all cases: McIlvaine buffer, pH 6.0, 20 °C, 5 min, pNPX 0.1 to 2 mM
R7 = system: T1, R7; format: biochemical, Humicola insolens; Acremonium sp. WCQ6A
T1 construct: gene Xyl43A; Xyl43A with segment A4 (H232-D324) of AX543 at the C-terminus; pET-28a(+), E. coli BL21(DE3), purified

R5 = system: T2, R5; format: biochemical, Acremonium sp. WCQ6A; Humicola insolens
T2 construct: gene AX543; pET-28a(+), E. coli BL21(DE3), purified

R6 = system: T3, R6; format: biochemical, Humicola insolens; Acremonium sp. WCQ6A
T3 construct: gene AX543; pET-28a(+), E. coli BL21(DE3), purified

R3 = system: T4, R3; format: biochemical, Acremonium sp. WCQ6A; Humicola insolens
T4 construct: gene AX543; pET-28a(+), E. coli BL21(DE3), purified

R9 = system: T5, R9; format: biochemical, Humicola insolens; Acremonium sp. WCQ6A
T5 construct: gene Xyl43A; Xyl43A with segment A2 (T68-G160) of AX543; pET-28a(+), E. coli BL21(DE3), purified

R10 = system: T6, R10; format: biochemical, Humicola insolens; Acremonium sp. WCQ6A
T6 construct: gene AX543; Xyl43A with segment A1 (M1-K67) of AX543 at the N-terminus; pET-28a(+), E. coli BL21(DE3), purified

R2 = system: T7, R2; format: biochemical, Acremonium sp. WCQ6A; Humicola insolens
T7 construct: gene AX543; pET-28a(+), E. coli BL21(DE3), purified

R8 = system: T8, R8; format: biochemical, Humicola insolens; Acremonium sp. WCQ6A
T8 construct: gene Xyl43A; Xyl43A with segment A3 (D161-K231) of AX543; pET-28a(+), E. coli BL21(DE3), purified

R4 = system: T9, R4; format: biochemical, Acremonium sp. WCQ6A; Humicola insolens
T9 construct: gene AX543; pET-28a(+), E. coli BL21(DE3), purified

R1 = system: T10, R1; format: biochemical, Acremonium sp. WCQ6A; Humicola insolens
T10 construct: gene AX543; pET-28a(+), E. coli BL21(DE3), purified

Km (R7): 1.63 ± 0.06 mM
Km (R5): 1.21 ± 0.056 mM
Km (R6): 1.19 ± 0.034 mM
Km (R3): 1 ± 0.025 mM
Km (R9): 1.32 ± 0.059 mM
Km (R10): 1.87 ± 0.044 mM
Km (R2): 1.17 ± 0.033 mM
Km (R8): 1.3 ± 0.192 mM
Km (R4): 1.84 ± 0.106 mM
Km (R1): 1.25 ± 0.048 mM
SMILES: O=[N+]([O-])c1ccc(O[C@@H]2OC[C@@H](O)[C@H](O)[C@H]2O)cc1 [4-nitrophenyl-β-D-xylopyranoside]
